According to the NIST ThermoML archive (doi:10.1016/j.jct.2015.01.007):

Experiment: molar heat capacity at constant pressure
Conditions: 101.33 kPa, Crystal 1

O=P([O-])([O-])[O-].[Fe+2].[Li+] [iron(II) lithium phosphate]
Conditions	molar heat capacity at constant pressure [J/K/mol]
66.42 K, relaxation calorimetry	28.2
67.51 K, relaxation calorimetry	28.84
68.59 K, relaxation calorimetry	29.48
69.68 K, relaxation calorimetry	30.12
70 K, combination of DSC and relaxation calorimetry	30.31
70.77 K, relaxation calorimetry	30.78
71.15 K, relaxation calorimetry	31.26
73.24 K, relaxation calorimetry	32.53
75.34 K, relaxation calorimetry	33.86
77.43 K, relaxation calorimetry	35.17
79.53 K, relaxation calorimetry	36.46
80 K, combination of DSC and relaxation calorimetry	36.84
81.62 K, relaxation calorimetry	37.8
83.72 K, relaxation calorimetry	39.15
85.81 K, relaxation calorimetry	40.41
87.9 K, relaxation calorimetry	41.69
90 K, combination of DSC and relaxation calorimetry	43.39
90 K, relaxation calorimetry	42.91
92.09 K, relaxation calorimetry	44.24
94.19 K, relaxation calorimetry	45.59
96.28 K, relaxation calorimetry	46.89
98.38 K, relaxation calorimetry	48.18
100 K, combination of DSC and relaxation calorimetry	49.48
100.47 K, relaxation calorimetry	49.44
102.56 K, relaxation calorimetry	50.67
104.65 K, relaxation calorimetry	52.08
106.73 K, relaxation calorimetry	53.17
108.85 K, relaxation calorimetry	54.37
110 K, combination of DSC and relaxation calorimetry	55.21
110.94 K, relaxation calorimetry	55.54
113.02 K, relaxation calorimetry	56.62
115.13 K, relaxation calorimetry	58.05
117.22 K, relaxation calorimetry	59.3
119.27 K, relaxation calorimetry	60.39
119.96 K, relaxation calorimetry	60.87
120 K, combination of DSC and relaxation calorimetry	60.65
120.69 K, relaxation calorimetry	61.12
121.4 K, relaxation calorimetry	61.55
122.12 K, relaxation calorimetry	61.93
122.83 K, relaxation calorimetry	62.24
123.54 K, relaxation calorimetry	62.63
124.25 K, relaxation calorimetry	63.1
124.96 K, relaxation calorimetry	63.45
125.68 K, relaxation calorimetry	63.84
126.36 K, relaxation calorimetry	64.12
127.07 K, relaxation calorimetry	64.49
127.81 K, relaxation calorimetry	64.96
130 K, combination of DSC and relaxation calorimetry	65.85
131.36 K, relaxation calorimetry	66.82
140 K, combination of DSC and relaxation calorimetry	70.83
141.32 K, relaxation calorimetry	71.82
150 K, combination of DSC and relaxation calorimetry	75.59
151.46 K, relaxation calorimetry	76.8
160 K, combination of DSC and relaxation calorimetry	80.13
161.54 K, relaxation calorimetry	81.23
170 K, combination of DSC and relaxation calorimetry	84.45
171.6 K, relaxation calorimetry	85.36
180 K, combination of DSC and relaxation calorimetry	88.56
181.68 K, relaxation calorimetry	89.21
190 K, combination of DSC and relaxation calorimetry	92.44
191.78 K, relaxation calorimetry	93.16
200 K, combination of DSC and relaxation calorimetry	96.11
201.84 K, relaxation calorimetry	97.49
210 K, combination of DSC and relaxation calorimetry	99.57
211.78 K, relaxation calorimetry	100.3
220 K, combination of DSC and relaxation calorimetry	102.8
222.01 K, relaxation calorimetry	103.27
230 K, combination of DSC and relaxation calorimetry	105.9
232.1 K, relaxation calorimetry	105.66
240 K, combination of DSC and relaxation calorimetry	108.7
242.04 K, relaxation calorimetry	108.22
250 K, combination of DSC and relaxation calorimetry	111.4
252.15 K, relaxation calorimetry	110.6
260 K, combination of DSC and relaxation calorimetry	113.9
262.34 K, relaxation calorimetry	112.67
270 K, combination of DSC and relaxation calorimetry	116.3
272.43 K, relaxation calorimetry	114.97
280 K, combination of DSC and relaxation calorimetry	118.4
282.56 K, relaxation calorimetry	117.79
284.9 K, Small sample (50 mg) DSC	120.8
